Values quoted from earlier work as cited in article PMC3261373 (Bioconjugate Chemistry, 2011).

Tests used:
[1] = tested on: APN
[2] = tested on: αvβ3-integrin; details: in vivo blocking studies
[3] = tested on: angiogenesis and tumor growth; details: in words

Compound: cyclic CNGRC [cyclic CNGRC peptide]
- binding affinity to APN ([1]; enzyme inhibition studies): moderate binding affinity
- binding to APN/CD13 ([1]; in words): known to bind APN/CD13

Compound: cyclic CisoDGRC [^99mTc-labeled cyclic CisoDGRC conjugate]
- binding to tumors and tissues expressing αvβ3-integrin [2]: selective binding

Compound: CC(C)C[C@H](NC(=O)[C@@H](O)[C@H](N)Cc1ccccc1)C(=O)O [bestatin]
- effect on angiogenesis and tumor growth [3]: suppressed angiogenesis and tumor growth
- mode of APN inhibition ([1]; in words): slow-binding competitive inhibitor
